The text below walks through data of patent US20120277209A1, “PYRAZINE COMPOUNDS AS PHOSPHODIESTERASE 10 INHIBITORS” (Amgen Inc., priority 2009, published 2012).

SMILES strings stand for the structures. Where only a bound is given, the exact number is not on record here.

In the first test the target is PDE10 (UniProt Q9Y233). In words: PDE10 enzyme inhibition, IMAP TR-FRET assay (MPDE10A7 Enzyme Activity and Inhibition). The class given is biochemical. The settings on record: IC50 class against PDE10; read-out: IC50. The essentials:
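PDE10A enzyme or tissue homogenate preincubated with compounds 30 min at room temperature, then fluorescein-labelled cAMP or cGMP added for 60 min. IMAP binding reagent stop, TR-FRET read. Values are mean IC50s, grouped into five potency classes.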
On the technique in general: TR-FRET usually uses a lanthanide donor and a delayed reading to cut background.
With `COc1cnccc1-c1nccnc1Oc1ccc(C(=O)c2nc3ccccc3[nH]2)cc1` [Example 113, (1H-benzo[d]imidazol-2-yl)(4-(3-(3-methoxypyridin-4-yl)pyrazin-2-yloxy)phenyl)methanone], the IC50 (in general, the concentration that inhibits the measured activity by half) lay in the range of 25 to 100 nM.

Turning to `c1ccc2sc(Nc3ccc(Oc4nccnc4-c4cncnc4)cc3)nc2c1` [Example 143, N-(4-(3-(pyrimidin-5-yl)pyrazin-2-yloxy)phenyl)benzo[d]thiazol-2-amine], the concentration for half-maximal inhibition (IC50) is below 25 nM.

For `CN1CCC(c2nccnc2Oc2ccc(Nc3nc4ccccc4s3)cc2)CC1` [Example 237, N-(4-(3-(1-methylpiperidin-4-yl)pyrazin-2-yloxy)phenyl)benzo [d]thiazol-2-amine], the IC50 is below 25 nM.

For the compound `N#Cc1cccc(-c2nccnc2Oc2ccc(C(=O)c3nc4ccccc4[nH]3)cc2)c1` [Example 125, 3-(3-(4-(1H-benzo[d]imidazole-2-carbonyl)phenoxy)pyrazin-2-yl)benzonitrile], the IC50 is below 25 nM.

With `O=C(c1ccc(Oc2nccnc2-c2ccc[nH]c2=O)cc1)c1nc2ccccc2[nH]1` [Example 106, 3-(3-(4-(1H-BENZO[D]IMIDAZOLE-2-CARBONYL)PHENOXY)PYRAZIN-2-YL)PYRIDIN-2(1H)-ONE], the half-inhibitory concentration (IC50) was below 25 nM.

Turning to `COCC1CCN(c2nccnc2Oc2ccc(Nc3nc4ccccc4s3)cc2)C1` (racemic) [Example 88, N-(4-(3-(3-(methoxymethyl)-pyrrolidin-1-yl)pyrazin-2-yl-oxy)phenyl)benzo[d]thiazol-2-amine], the IC50 is below 25 nM.

As for `CC1CN(c2nccnc2Oc2ccc(Nc3nc4ccccc4s3)cc2)CC(C)O1` (stereo not shown) [Example 74, N-(4-(3-(2,6-dimethylmorph-olino)pyrazin-2-yloxy)phenyl)-benzo[d]thiazol-2-amine], the concentration for half-maximal inhibition (IC50) lay in the range of 25 to 100 nM.

Turning to `COc1cccc(-c2nccnc2Oc2ccc(C(=O)c3nc4ccccc4[nH]3)cc2)c1` [Example 128, (1H-benzo[d]imidazol-2-yl)(4-(3-(3-methoxyphenyl)pyrazin-2-yloxy)phenyl)methanone], the IC50 was below 25 nM.

Regarding `O=C(c1ccc(Oc2nccnc2C2CCCC2)cc1)c1nc2ccccc2[nH]1` [Example 220, (1H-benzo[d]imidazol-2-yl)(4-(3-cyclopentylpyrazin-2-yloxy)phenyl)methanone], the IC50 is 25 to 100 nM.

As for `COc1cncc(-c2nccnc2Oc2ccc(C(=O)c3nc4ccccc4[nH]3)cc2)c1` [Example 118, (1H-benzo[d]imidazol-2-yl)(4-(3-(5-methoxypyridin-3-yl)pyrazin-2-yloxy)phenyl)methanone], the IC50 was below 25 nM.

With `O=C(c1ccc(Oc2nccnc2OCCc2ccccn2)cc1)c1nc2ccccc2[nH]1` [Example 177, (1H-benzo[d]imidazol-2-yl)(4-(3-(2-(pyridin-2-yl)ethoxy)pyrazin-2-yloxy)phenyl)methanone], the IC50 is 25 to 100 nM.

On to `Fc1cc(Oc2nccnc2Cl)ccc1Nc1nc2ccccc2s1` [Example 103, N-(4-(3-chloropyrazin-2-yloxy)-2-fluorophenyl)benzo[d]thiazol-2-amine], for which the IC50 lay in the range of 1000 to 5000 nM.

`O=C(c1ccc(Oc2nccnc2C(=O)NCCc2ccccn2)cc1)c1nc2ccccc2[nH]1` [Example 257, 3-(4-(1H-benzo[d]imidazole-2-carbonyl)phenoxy)-N-(2-(pyridin-2-yl)ethyl)pyrazine-2-carboxamide]: the IC50 was below 25 nM.

As for `CN1CCCC1CCOc1nccnc1Oc1ccc(C(=O)c2nc3ccccc3[nH]2)cc1` (stereo not shown) [Example 175], the IC50 was 100 to 250 nM.

As for `CN1CCC(c2nccnc2Oc2ccc(C(=O)c3nc4ccccc4[nH]3)cc2)=CC1=O` [Example 252, 4-(3-(4-(1H-benzo[d]imidazole-2-carbonyl)phenoxy)pyrazin-2-yl)-1-methyl-5,6-dihydropyridin-2(1H)-one], the IC50 is below 25 nM.

Consider `N#CC1CN(c2nccnc2Oc2ccc(Nc3nc4ccccc4s3)cc2)C1` [Example 93, 1-(3-(4-(benzo[d]thiazol-2-yl-amino)phenoxy)pyrazin-2-yl)-azetidine-3-carbonitrile], for which the IC50 was 25 to 100 nM.

In the case of `CC(C)(C)OC(=O)N1CCC(CO)(c2nccnc2Oc2ccc(Nc3nc4ccccc4s3)cc2)CC1` [Example 206, tert-butyl 4-(3-(4-(benzo[d]thiazol-2-ylamino)phenoxy)pyrazin-2-yl)-4-(hydroxymethyl)piperidine-1-carboxylate], the half-maximal inhibitory concentration (IC50) lay within 25 to 100 nM.

With `c1ccc2[nH]c(Nc3ccc(Oc4nccnc4C4CCOCC4)cc3)nc2c1` [Example 207, N-(4-(3-(tetrahydro-2H-pyran-4-yl)pyrazin-2-yloxy)phenyl)-1H-benzo[d]imidazol-2-amine], the half-maximal inhibitory concentration (IC50) was below 25 nM.

In the case of `O=C(c1ccc(Oc2nccnc2C(=O)NCCc2ccccc2)cc1)c1nc2ccccc2[nH]1` [Example 254, 3-(4-(1H-benzo[d]imidazole-2-carbonyl)phenoxy)-N-phenethylpyrazine-2-carboxamide], the IC50 was below 25 nM.

Regarding `COC(=O)c1ccc(-c2nccnc2Oc2ccc(C(=O)c3nc4ccccc4[nH]3)cc2)cc1` [Example 126, methyl 4-(3-(4-(1H-benzo[d]imidazole-2-carbonyl)phenoxy)pyrazin-2-yl)benzoate], the half-maximal inhibitory concentration (IC50) is below 25 nM.

With `CC(=O)N1CCN(c2nccnc2Oc2ccc(Nc3nc4ccccc4s3)cc2)CC1` [Example 71, 1-(4-(3-(4-(benzo[d]thiazol-2-ylamino)phenoxy)pyrazin-2-yl)piperazin-1-yl)ethanone], the IC50 lay in the range of 25 to 100 nM.

`COC[C@H](C)NC(=O)c1nccnc1Oc1ccc(C(=O)c2nc3ccccc3[nH]2)cc1` [Example 256, (S)-3-(4-(1H-benzo[d]imidazole-2-carbonyl)phenoxy)-N-(1-methoxypropan-2-yl)pyrazine-2-carboxamide]: the IC50 fell in the range of 25 to 100 nM.

For the compound `COc1ncccc1-c1nccnc1Oc1ccc(Nc2nc3ccc(F)cc3s2)cc1` [Example 153, 6-fluoro-N-(4-(3-(2-methoxypyridin-3-yl)pyrazin-2-yloxy)phenyl)benzo[d]thiazol-2-amine], the half-maximal inhibitory concentration (IC50) was 25 to 100 nM.

As for `CC(C)Oc1nccnc1Oc1ccc(C(=O)c2nc3ccccc3[nH]2)cc1` [Example 161, (1H-benzo[d]imidazol-2-yl)(4-(3-isopropoxypyrazin-2-yloxy)phenyl)methanone], the 50% inhibitory concentration (IC50) lay within 1000 to 5000 nM.

In the case of `O[C@H]1CCC[C@H](c2nccnc2Oc2ccc(Nc3nc4ccccc4s3)cc2)C1` (racemic) [Example 192, (rac)-trans-3-(3-(4-(benzo[d]thiazol-2-ylamino)phenoxy)pyrazin-2-yl)cyclohexanol], the IC50 was below 25 nM.

The test is the same for the next values; noted with them: PDE10 enzyme inhibition; average IC50 data for each compound; read-out: Average IC50.
As for `O=C(c1ccc(Oc2nccnc2-c2cccnc2F)cc1)c1nc2ccccc2[nH]1`, the IC50 was 3.53 nM.

As to `O=C(c1ccc(Oc2nccnc2OCC2CC2)cc1)c1nc2ccccc2[nH]1` [drawing 846], the IC50 was found to be 164 nM.

On to `C[C@@H]1CN(c2nccnc2Oc2ccc(C(=O)c3nc4ccccc4[nH]3)cc2)CC(=O)N1` (stereo in doubt), for which the IC50 was found to be 2.57 nM.

For `O[C@@H]1C=C(c2nccnc2Oc2ccc(Nc3nc4ccccc4s3)c(F)c2)CCC1` (stereo in doubt), the concentration for half-maximal inhibition (IC50) was determined as 7.9 nM.

For `Cc1ncccc1-c1nccnc1Oc1ccc(C(=O)c2nc3ccccc3[nH]2)cc1` [drawing 947], the 50% inhibitory concentration (IC50) worked out at 2.07 nM.

Regarding `O=C(c1ccc(Oc2nccnc2Cl)cc1)c1nc2ncccc2[nH]1`, the half-inhibitory concentration (IC50) turned out to be 171 nM.

As for `CC(=O)N1CCC(c2nccnc2Oc2ccc(Nc3nc4ccccc4s3)cc2)CC1` [drawing 893], the half-maximal inhibitory concentration (IC50) came to 0.059 nM.

`c1ccc2sc(Nc3ccc(Oc4nccnc4-c4ccc(N5CCOCC5)nc4)cc3)nc2c1` [drawing 762]: the IC50 came out at 78 nM.

As to `Cc1ncsc1CCOc1nccnc1Oc1ccc(C(=O)c2nc3ccccc3[nH]2)cc1` [drawing 853], the concentration for half-maximal inhibition (IC50) turned out to be 1.86 nM.

Consider `O=C(c1ccc(Oc2nccnc2[C@H]2CC[C@H](O)CC2)cc1)c1nc2ccccc2[nH]1`, for which the IC50 is 0.426 nM.

On to `CC#CCOc1nccnc1Oc1ccc(C(=O)c2nc3ccccc3[nH]2)cc1` [drawing 852], for which the concentration for half-maximal inhibition (IC50) amounted to 673 nM.

In the case of `OC1CCN(c2nccnc2Oc2ccc(Nc3nc4ccccc4s3)cc2)CC1` [drawing 717], the 50% inhibitory concentration (IC50) amounted to 8.17 nM.

On to `CC(=O)OCC(=O)N1CCC(c2nccnc2Oc2ccc(C(=O)c3nc4ccccc4[nH]3)cc2)CC1` [drawing 991], for which the concentration for half-maximal inhibition (IC50) was found to be 0.0175 nM.

For `N#C[C@H]1CCN(c2nccnc2Oc2ccc(C(=O)c3nc4ccccc4[nH]3)cc2)C1` [drawing 829], the half-inhibitory concentration (IC50) came out at 1.32 nM.

Consider `Fc1ccc2sc(Nc3ccc(Oc4cnccn4)cc3)nc2c1` [drawing 882], for which the concentration for half-maximal inhibition (IC50) amounted to 12500 nM.

For the compound `CC(=O)N1CCC(c2nccnc2Oc2ccc(C(=O)c3nc4ccccc4[nH]3)cc2)CC1` [drawing 889], the IC50 came to 0.182 nM.

As to `O=C(O)c1ccc(-c2nccnc2Oc2ccc(C(=O)c3nc4ccccc4[nH]3)cc2)cc1` [drawing 761], the IC50 was determined as 2.06 nM.

Still in this test, the particulars now being: PDE10 enzyme inhibition; chiral compounds separated from racemic mixtures; read-out: IC50.
As to `O=C(c1ccc(Oc2nccnc2[C@H]2CCC[C@@H](O)C2)cc1)c1nc2ccccc2[nH]1` [Example 270, (1H-benzo[d]imidazol-2-yl)(4-(3-((1S,3R)-3-hydroxycyclohexyl)pyrazin-2-yloxy)phenyl) methanone], the IC50 is below 25 nM.

With `COC(=O)[C@H]1CCN(c2nccnc2Oc2ccc(C(=O)c3nc4ccccc4[nH]3)cc2)C1` [Example 265, (S)-methyl 1-(3-(4-(1H-benzo[d]imidazole-2-carbonyl)phenoxy)pyrazin-2-yl)pyrrolidine-3-carboxylate], the IC50 is below 25 nM.

Consider `COC(=O)[C@@H]1CCN(c2nccnc2Oc2ccc(C(=O)c3nc4ccccc4[nH]3)cc2)C1` [Example 266, (R)-methyl 1-(3-(4-(1H-benzo[d]imidazole-2-carbonyl)phenoxy)pyrazin-2-yl)pyrrolidine-3-carboxylate], for which the IC50 was below 25 nM.

`O[C@@H]1CCC[C@@H](c2nccnc2Oc2ccc(Nc3nc4ccccc4s3)cc2)C1` [Example 276, (1R,3R)-3-(3-(4-(benzo[d]thiazol-2-ylamino)phenoxy)pyrazin-2-yl)cyclohexanol]: the IC50 was below 25 nM.
